Laboratory results taken from ChEMBL document CHEMBL1149009, “Antitumor agents, 79. Cytotoxic antileukemic alkaloids from Brucea antidysenterica” (1986).
In brackets after ≈: the same amount, converted by molar mass. Activity calls are given as the source filed them. No cut-off for these calls is given here.

What was measured:
Format in all cases: functional
KB = experiment: Cytotoxicity against human KB cells; settings: for EC50: read-out: ED50 (the source's name)
P388 [1] = experiment: In vivo antitumor activity against mouse P388 cells at 25 mg/kg after 3 days
P388 [2] = experiment: In vivo antitumor activity against mouse P388 cells at 200 mg/kg after 1 day

O=c1ccc2nccc3c4c(O)cccc4n1c23
EC50 (KB): ≤ 4 µg/mL

COc1cccc2c1c1c(OC)cnc3ccc(=O)n2c31
EC50 (KB): 1 µg/mL (≈ 3.57 µM) | T/C (P388 [1]): 122%

O=c1ccc2nccc3c4ccccc4n1c23
Activity (KB): inactive

O=c1[nH]cc(F)c(=O)[nH]1 [FLUOROURACIL]
T/C (P388 [2]): 135%
